Source: US12319736B2, “Combination of antibody-drug conjugate and immune checkpoint inhibitor” (DAIICHI SANKYO COMPANY, LIMITED, priority 2016, dated 2025)

Assays:
[1] = tested on: bone marrow-derived dendritic cells; test: Effect on in vitro dendritic cells, flow cytometry (Evaluation Example 5); assay type: cell-based, mouse; details: 0.0625-1 μM, 24 hours, compared with DMSO
Experimental: BALB/c mice were euthanized, and bone marrow cells were then separated from each femur, and cultured with an RPMI 1640 medium containing 10% FBS, 55 μM 2-mercaptoethanol, 100 U/mL penicillin, […], 1 mM sodium pyruvate, 1×non-essential amino acid, 2 mM L-glutamine, and 10 ng/mL mouse GM-CSF for 11 days to induce bone marrow-derived dendritic cells. To the culture solution for the induced dendritic cells, the compound (A) was added to a concentration of 0.0625 μM, 0.125 μM, 0.25 μM, 0.5 μM, or 1 μM. For a control, DMSO in a quantity equal to that of the compound (A) was added. After 24 hours, staining was performed by using a Pacific Blue labeled anti-mouse CD45 Antibody (103126, BioLegend), PE labeled anti-mouse CD86 (B7-2) (553692, Becton Dickinson), APC labeled anti-mouse CD11c (550261, Becton Dickinson), and FITC labeled anti-mouse MHC Class II (I-A/I-E) (11-5321-85, Thermo Fisher Scientific), and analysis was performed by using an FACS Canto II. Dead cells had been stained with a LIVE/DEAD Fixable Near-IR Dead Cell Stain Kit purchased from Thermo Fisher Scientific, and excluded from the analysis.

[2] = tested on: CT26.WT-hHER2 cells; test: Analysis of in vitro cancer cells, MHC class I by flow cytometry (Evaluation Example 8); assay type: cell-based, mouse; details: 0.0625-1 μM, 24 hours, vs DMSO, Dunnett's test
Experimental: (§1) To culture solution for CT26.WT-hHER2 cells, the compound (A) was added to a concentration of 0.0625 μM, 0.125 μM, 0.25 μM, 0.5 μM, or 1 μM. For a control, DMSO in a quantity equal to that of the compound (A) was added. After 24 hours, staining was performed by using PE labeled anti-human Her2/neu (340552, Becton Dickinson) and FITC labeled anti-mouse H-2Dd (110606, BioLegend), and expression levels of MHC class I on cancer cells were determined with flow cytometry. Dead cells had been stained with a LIVE/DEAD Fixable Near-IR Dead Cell Stain Kit purchased from Thermo Fisher Scientific, and excluded from the analysis. The mean fluorescence intensity (MFI) of MHC class I was calculated, and MFI for cells treated with an Isotype control was subtracted from the MFI for stained cells, and the resulting value was used as adjusted MFI. Comparison between the control group and the compound (A) group was performed by using Dunnett's test, P values were expressed as numerical values to the fourth decimal place, and values of P<0.05 (two-tailed test) were regarded as significant differences.

[3] = tested on: CT26.WT-hHER2 cells; test: Analysis of in vitro cancer cells treated with different compounds, MHC class I (Evaluation Example 17); assay type: cell-based, mouse; details: 20 nM, 100 nM, 500 nM; vs control group, Dunnett's test; agents: compound (A), DM1-SMe, DM4-SMe, MMAE
Experimental: as §1
Expression levels of MHC class I were determined for cancer cells treated with different compounds. […]

[4] = molecular target: T1, topoisomerase I (Homo sapiens, UniProt P11387); details: Ogitani Y. et al., Clinical Cancer Research 2016; cited from earlier work
T1 sequence (P11387 1-765): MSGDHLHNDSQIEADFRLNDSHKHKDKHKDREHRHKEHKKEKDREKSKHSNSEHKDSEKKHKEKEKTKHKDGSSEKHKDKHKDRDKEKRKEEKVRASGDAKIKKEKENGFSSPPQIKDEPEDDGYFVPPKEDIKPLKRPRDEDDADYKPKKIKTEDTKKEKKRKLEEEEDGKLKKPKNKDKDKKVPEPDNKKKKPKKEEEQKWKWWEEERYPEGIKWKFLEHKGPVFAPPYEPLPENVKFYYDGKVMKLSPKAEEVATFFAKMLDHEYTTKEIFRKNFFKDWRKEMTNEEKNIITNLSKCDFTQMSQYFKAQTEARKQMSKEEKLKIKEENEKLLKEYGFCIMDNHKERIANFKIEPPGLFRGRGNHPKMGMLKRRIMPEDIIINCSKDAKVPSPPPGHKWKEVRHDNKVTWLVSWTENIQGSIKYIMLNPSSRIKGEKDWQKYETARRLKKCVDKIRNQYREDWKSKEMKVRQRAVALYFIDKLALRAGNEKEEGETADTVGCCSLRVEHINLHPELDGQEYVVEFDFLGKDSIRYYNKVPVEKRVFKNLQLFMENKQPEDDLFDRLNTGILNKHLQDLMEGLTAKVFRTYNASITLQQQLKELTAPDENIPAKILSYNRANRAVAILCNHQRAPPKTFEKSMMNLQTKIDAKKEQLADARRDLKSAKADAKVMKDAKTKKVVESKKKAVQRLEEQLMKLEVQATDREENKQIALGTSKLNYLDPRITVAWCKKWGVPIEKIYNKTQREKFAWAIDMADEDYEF

SMILES: CC[C@@]1(O)C(=O)OCc2c1cc1n(c2=O)Cc2c-1nc1cc(F)c(C)c3c1c2[C@@H](NC(=O)CO)CC3 [compound (A)]
- expression level of CD86 on CD11c-positive cells [1]: elevated
- expression level of MHC class II on CD11c-positive cells [1]: elevated
- expression level of MHC class I on CT26.WT-hHER2 cells (adjusted MFI) [2]: significantly elevated
- expression level of MHC class I on CT26.WT-hHER2 cells [3]: maximum elevation effect
- topoisomerase I inhibitory effect [4]: confirmed to have a topoisomerase I inhibitory effect
